Structures can show the parent of a compound that is named as a salt.
Target: T1, hNPRA (Homo sapiens, UniProt P16066)
T1 construct: expressed in transfected cells
T1 sequence (P16066 33-1061): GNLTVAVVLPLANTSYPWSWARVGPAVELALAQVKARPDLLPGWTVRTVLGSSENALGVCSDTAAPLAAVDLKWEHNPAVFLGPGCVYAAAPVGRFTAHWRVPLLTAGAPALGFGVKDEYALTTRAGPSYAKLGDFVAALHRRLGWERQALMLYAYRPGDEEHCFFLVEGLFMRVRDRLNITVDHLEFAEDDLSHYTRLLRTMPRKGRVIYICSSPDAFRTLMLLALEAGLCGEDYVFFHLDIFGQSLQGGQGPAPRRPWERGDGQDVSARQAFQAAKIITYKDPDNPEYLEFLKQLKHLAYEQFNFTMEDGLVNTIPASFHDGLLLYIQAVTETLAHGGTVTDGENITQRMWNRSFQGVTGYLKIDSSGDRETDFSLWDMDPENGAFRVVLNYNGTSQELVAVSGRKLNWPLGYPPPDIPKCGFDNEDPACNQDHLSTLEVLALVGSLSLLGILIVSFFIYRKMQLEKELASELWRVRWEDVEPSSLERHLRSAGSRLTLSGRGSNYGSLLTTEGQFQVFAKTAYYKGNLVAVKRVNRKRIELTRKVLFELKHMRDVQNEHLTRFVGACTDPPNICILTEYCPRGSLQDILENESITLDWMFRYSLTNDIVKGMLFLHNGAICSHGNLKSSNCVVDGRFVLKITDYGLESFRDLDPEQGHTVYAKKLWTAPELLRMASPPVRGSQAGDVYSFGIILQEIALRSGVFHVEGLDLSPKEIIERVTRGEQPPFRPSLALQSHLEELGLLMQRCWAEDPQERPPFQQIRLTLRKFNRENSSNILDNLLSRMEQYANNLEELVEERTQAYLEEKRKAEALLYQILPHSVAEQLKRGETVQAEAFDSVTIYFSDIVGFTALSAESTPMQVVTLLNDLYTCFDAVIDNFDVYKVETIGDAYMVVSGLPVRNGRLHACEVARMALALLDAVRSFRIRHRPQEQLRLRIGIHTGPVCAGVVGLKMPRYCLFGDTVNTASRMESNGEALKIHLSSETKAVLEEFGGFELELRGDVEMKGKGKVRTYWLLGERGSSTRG
Test: NPRA Functional Cell Assay (cGMP HTRF, NPRA HEK JumpIn stable cells)
Type: cell-based
Settings: cGMP production, 1 hour at 37° C., 10-point dose response
How it was run: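 cGMP HTRF read-out after 1 hour compound treatment at 37° C. of human NPRA-expressing HEK JumpIn cells, 1500 cells/well, in buffer with phosphodiesterase inhibitors IBMX and RO20 (100 uM each). Signal converted to [cGMP] by calibration curve; EC50s fitted by 4-parameter logistic; 50 nM h-ANP as positive response.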

SMILES | EC50 [nM]
CC(C)(C)[C@H]1CCc2nc3sc(C(=O)N[C@H](CCNC4CCOCC4)c4cccc(NS(C)(=O)=O)c4)cc3cc2C1 (racemic) [Example 10, ammonium; methylsulfonyl-[3-[rac-(1R)-1-[[rac-(6S)-6-tert-butyl-5,6,7,8-tetrahydrothieno[2,3-b]quinoline-2-carbonyl]amino]-3-(tetrahydro-pyran-4-ylamino)propyl]phenyl]azanide] | 710
CC(C)(C)[C@H]1CCc2nc3sc(C(=O)N[C@H](CCN4CCC(C(=O)O)CC4)c4cccc(C(=O)NC5CN(Cc6ccccc6)C5)c4)nc3cc2C1 (racemic) [Example 123, 1-[rac-(3R)-3-[3-{(1-benzylazetidin-3-yl)carbamoyl]phenyl]-3-[[rac-(7S)-7-tert-butyl-5,6,7,8-tetrahydrothiazolo [5,4-b]quinoline-2-carbonyl]amino]propyl] piperidin-1-ium-4-carboxylic acid; 2,2,2-trifluoroacetate] | 657
CN(C)S(=O)(=O)Nc1ccc([C@@H](CCN2CCNC(=O)CC2)NC(=O)c2nc3cc4c(nc3s2)CC[C@H](C(C)(C)C)C4)cn1 (racemic) [Example 215, rac-(7S)-7-tert-butyl-N-[rac-(1R)-1-[6-(dimethylsulfamoylamino)-3-pyridyl]-3-(5-oxo-1,4-diazepan-1-ium-1-yl)propyl]-5,6,7,8-tetrahydrothiazolo[5,4-b]quinoline-2-carboxamide; 2,2,2-trifluoroacetate] | 1610
CC(C)(C)[C@H]1CCc2nc3sc(C(=O)N[C@H](CCN4CCC(C(=O)O)CC4)c4ccccc4)cc3cc2C1 [Example 258, 1-[(3R)-3-({[(6S)-6-tert-butyl-5,6,7,8-tetrahydrothieno[2,3-b]quinolin-2-yl]carbonyl}amino)-3-phenylpropyl]piperidine-4-carboxylic acid] | 2080
CC(C)(C)[C@H]1CCc2nc3sc(C(=O)N[C@H](CCN4CCC(O)CC4)c4ccc(-c5cc(F)c(O)cn5)cc4)nc3cc2C1 [Example 228, (S)-7-(tert-butyl)-N-((R)-1-(4-(4-fluoro-5-hydroxypyridin-2-yl)phenyl)-3-(4-hydroxypiperidin-1-yl)propyl)-5,6,7,8-tetrahydrothiazolo[5,4-b]quinoline-2-carboxamide] | 305
CC(C)(C)[C@H]1CCc2nc3sc(C(=O)N[C@H](CCN4CCC(c5ccccn5)CC4)c4cccc(NS(C)(=O)=O)c4)cc3cc2C1 (racemic) [Example 23, ammonium;methylsulfonyl-[3-[rac-(1R)-3-[4-(2-pyridyl)-1-piperidyl]-1-[[rac-(6S)-6-tert-butyl-5,6,7,8-tetrahydrothieno[2,3-b]quinoline-2carbonyl]amino]propyl]phenyl]azanide] | 1790

Now those with a lower EC50, led by results:

EC50 [nM] | SMILES
270 | CC(C)(C)[C@H]1CCc2nc3sc(C(=O)N[C@H](CCN4CCC(O)CC4)c4ccc(-c5ccc(=O)[nH]c5)cc4)nc3cc2C1 (racemic) [Example 79, rac-(7S)-7-tert-butyl-N-[rac-(1R)-3-(4-hydroxypiperidin-1-ium-1-yl)-1-[4-(6-oxo-1H-pyridin-3-yl)phenyl]propyl]-5,6,7,8-tetrahydrothiazolo[5,4-b]quinoline-2-carboxamide; formate]
200 | CC(C)(C)[C@H]1CCc2nc3sc(C(=O)N[C@H](CCN4CCC(C(=O)O)CC4)c4ccc(-c5cnc(O)c(F)c5)cc4)nc3cc2C1 [Example 223, 1-((R)-3-((S)-7-(tert-butyl)-5,6,7,8-tetrahydrothiazolo[5,4-b]quinoline-2-carboxamido)-3-(4-(5-fluoro-6-hydroxypyridin-3-yl)phenyl)propyl)piperidine-4-carboxylic acid]
129 | CC(C)(C)[C@H]1CCc2nc3sc(C(=O)N[C@H](CCN4CCC(O)CC4)c4ccc(-c5ccnnc5)nc4)nc3cc2C1 [Example 263, (S)-7-(tert-butyl)-N-((R)-3-(4-hydroxypiperidin-1-yl)-1-(6-(pyridazin-4-yl)pyridin-3-yl)propyl)-5,6,7,8-tetrahydrothiazolo[5,4-b]quinoline-2-carboxamide]

From patent US12440496B2, “Natriuretic peptide receptor a agonists useful for the treatment of cardiometabolic diseases, kidney disease and diabetes” (Merck Sharp & Dohme LLC, priority 2019, dated 2025)
